The structures appear in SMILES notation.

Consider 18 compounds from patent US12297196B2, “Condensed bicyclic heterocyclic derivatives as pest control agents” (Bayer Aktiengesellschaft, priority 2019, dated 2025).

The nature of data set [1]: log P by HPLC on reversed-phase column (C18), neutral range. The data set is classed as physicochemical. The note with it: ammonium carbonate in water / acetonitrile. The procedure: The log P values were determined according to EEC Directive 79/831 Annex V.A8 by HPLC (high-performance liquid chromatography) on a reversed-phase column (C18) using the following methods: ^[b] The log P value is determined by LC-UV measurement in the neutral range using 79 mg/l ammonium carbonate in water and acetonitrile as mobile phases (linear gradient from 10% acetonitrile to 95% acetonitrile). Calibration was carried out using a homologous series of straight-chain alkan-2-ones (having 3 to 16 carbon atoms) with known log P values. The values between successive alkanones are determined by linear regression.

Data set [2] deals with green peach aphids (Myzus persicae). The data set is described as follows: Myzus persicae oral test. The note with it: 120 h, after 5 days, read-out: efficacy in %. The class given is in vivo. Here is the method: Myzus Persicae—Oral Test • Solvent: 100 parts by weight of acetone To produce a suitable active compound formulation, 1 part by weight of active compound is dissolved using the specified parts by weight of solvent and made up with water until the desired concentration is attained. 50 μl of the active compound preparation are transferred into microtitre plates and made up to a final volume of 200 μl with 150 μl of IPL41 insect medium (33%+15% sugar). Subsequently, the plates are sealed with parafilm, which a mixed population of green peach aphids (Myzus persicae) within a second microtitre plate is able to puncture and imbibe the solution through. After 5 days, the efficacy in % is determined. 100% means that all the aphids have been killed; 0% means that no aphids have been killed.

The subject of data set [3] is green peach aphid (Myzus persicae). The data set is described as follows: Myzus persicae spray test. The class given is in vivo. The note with it: foliar, 120 h, after 5 days, Chinese cabbage leaf disks, read-out: efficacy in %. Here is the method:
Myzus Persicae—Spray Test
(§1) • Solvent: 78 parts by weight of acetone • 1.5 parts by weight of dimethylformamide • Emulsifier: alkylaryl polyglycol ether
(§2) To produce a suitable active compound formulation, 1 part by weight of active compound is dissolved using the stated parts by weight of solvent and made up with water containing an emulsifier concentration of 1000 ppm until the desired concentration is attained. To produce further test concentrations, the formulation is diluted with emulsifier-containing water.
Disks of Chinese cabbage leaves (Brassica pekinensis) infested by all stages of the green peach aphid (Myzus persicae) are sprayed with an active compound formulation of the desired concentration.
After 5 days, the efficacy in % is determined. 100% means that all the aphids have been killed; 0% means that no aphids have been killed.

Data set [4] shares this test system. The data set is described as follows: Comparative experiment: Myzus persicae spray test (MYZUPE). The data set is classed as in vivo. The settings on record: 120 h, 5 dat, read-out: % efficacy; for Emax at 4 g/ha: 4 g of ai/ha; for Emax at 20 g/ha: 20 g of ai/ha; for Emax at 100 g/ha: 100 g of ai/ha. The procedure:
Myzus Persicae—Spray Test (MYZUPE)
(§3) • Solvent: 78.0 parts by weight of acetone • 1.5 parts by weight of dimethylformamide • Emulsifier: alkylaryl polyglycol ether
as §2
Disks of Chinese cabbage leaves (Brassica pekinensis) infested by all stages of the green peach aphid (Myzus persicae) are sprayed with an active compound preparation of the desired concentration.
After the desired period of time, the efficacy in % is determined. 100% means that all the aphids have been killed; 0% means that no aphids have been killed.

The test system of data set [5] is mustard beetle Phaedon cochleariae. In words: Phaedon cochleariae spray test. The data set is classed as in vivo. The note with it: 100 g/ha; after 7 days; Chinese cabbage leaf disks, larvae. The procedure:
Phaedon Cochleariae—Spray Test
as §3, §2
Disks of Chinese cabbage leaves (Brassica pekinensis) are sprayed with an active compound formulation of the desired concentration and, after drying, populated with larvae of the mustard beetle Phaedon cochleariae).
After 7 days, the efficacy in % is determined. 100% means that all the beetle larvae have been killed; 0% means that no beetle larvae have been killed.

Data set [6] concerns mustard beetle (Phaedon cochleariae). The data set is described as follows: Comparative experiment: Phaedon cochleariae spray test (PHAECO). The class given is in vivo. The note with it: 168 h, 7 dat, read-out: % efficacy; for Emax at 4 g/ha: 4 g of ai/ha; for Emax at 20 g/ha: 20 g of ai/ha. Here is the method: Phaedon Cochleariae—Spray Test (PHAECO)
as §3, §2
Disks of Chinese cabbage leaves (Brassica pekinensis) are sprayed with an active compound formulation of the desired concentration and, after drying, populated with larvae of the mustard beetle (Phaedon cochleariae).
After the desired period of time, the efficacy in % is determined. 100% means that all the beetle larvae have been killed; 0% means that no beetle larvae have been killed.

For data set [7], the system named is fall armyworm (Spodoptera frugiperda). The data set is described as follows: Spodoptera frugiperda spray test. The data set is classed as in vivo. The settings on record: foliar, 168 h, after 7 days, corn leaf disks, caterpillars, read-out: efficacy in %. Here is the method: Spodoptera Fruaiperda—Spray Test
as §3, §2
Leaf disks of corn (Zea mays) are sprayed with an active compound formulation of the desired concentration and, after drying, populated with caterpillars of the fall armyworm (Spodoptera frugiperda).
After 7 days, the efficacy in % is determined. 100% means that all the caterpillars have been killed; 0% means that no caterpillar has been killed.

Data set [8] concerns armyworm (Spodoptera frugiperda). In words: Comparative experiment: Spodoptera frugiperda spray test (SPODFR). The class given is in vivo. The note with it: 168 h, 7 dat, read-out: % efficacy; for Emax at 0.8 g/ha: 0.8 g of ai/ha; for Emax at 4 g/ha: 4 g of ai/ha; for Emax at 20 g/ha: 20 g of ai/ha. Here is the method: Spodoptera Fruaiperda—Spray Test (SPODFR)
as §3, §2
Leaf disks of corn (Zea mays) are sprayed with an active compound formulation of the desired concentration and, after drying, populated with caterpillars of the armyworm (Spodoptera frugiperda).
After the desired period of time, the efficacy in % is determined. 100% means that all the caterpillars have been killed; 0% means that no caterpillar has been killed.

Data set [9] concerns Diabrotica balteata. The data set is described as follows: Diabrotica balteata spray test. The class given is in vivo. The note with it: topical, 168 h, 100 g/ha (=32 μg/cavity), after 7 days, sprayed germinated wheat grains, beetle larvae, read-out: efficacy in %. The procedure:
Diabrotica balteata—Spray Test
as §1, §2
Pre-swollen wheat grains (Triticum aestivum) are incubated in a multiwell plate filled with agar and a little water for one day (5 seed grains per cavity). The germinated wheat grains are sprayed with an active compound formulation of the desired concentration. Subsequently, each cavity is infected with 10−20 beetle larvae of Diabrotica balteata.
After 7 days, the efficacy in % is determined. 100% means that all wheat plants have grown as in the untreated, uninfected control; 0% means that no wheat plant has grown.

In the case of `CCSc1c(-c2nc3cc(C(F)(F)F)cnc3n2C)ncc2cc(C3(C#N)CC3)ccc12` [1-[4-Ethylsulfanyl-3-[3-methyl-6-(trifluoromethyl)imidazo[4,5-b]pyridin-2-yl]-7-isoquinolyl]cyclopropanecarbonitrile], in data set [1], the chromatographic logP (in general, a lipophilicity value derived from retention on a column) stood at 3.67.
Turning to `CCSc1c(-c2nc3cc(C(F)(F)F)cnc3n2C)ncc2cc(CC#N)ccc12` [2-[4-Ethylsulfanyl-3-[3-methyl-6-(trifluoromethyl)imidazo[4,5-b]pyridin-2-yl]-7-isoquinolyl]acetonitrile], the chromatographic logP in [1] stood at 3.22.
The same measure, in the same setting: in the case of `CCSc1c(-c2nc3cc(C(F)(F)F)cnc3n2C)ncc2cc(Br)ccc12` [7-Bromo-4-ethylsulfanyl-3-[3-methyl-6-(trifluoromethyl)imidazo[4,5-b]pyridin-2-yl]isoquinoline] it was 4.36.
As to `CCS(=O)(=O)c1c(-c2nc3cc(C(F)(F)F)cnc3n2C)ncc2cc(C3(C#N)CC3)ccc12` [Example I-1, 1-[4-Ethylsulfonyl-3-[3-methyl-6-(trifluoromethy)imidazo[4,5-b]pyridin-2-yl]-7-isoquinolyl]cyclopropanecarbonitrile], in [2], the pest or weed control at 0.8 ppm turned out to be 90% and the pest or weed control at 4 ppm turned out to be 100%. For the same compound, the pest or weed control at 100 g/ha in [3] was found to be 90%. Also, in [4], the Emax at 4 g/ha is 70%, the Emax at 20 g/ha worked out at 90% and the Emax at 100 g/ha stood at 90%. This compound yielded an efficacy in % in data set [5] of 100%. In data set [6], the Emax at 4 g/ha was 100% and the Emax at 20 g/ha was 100%. The pest or weed control at 100 g/ha in data set [7] amounted to 100%. In addition, in data set [1], the chromatographic logP was found to be 3.02. In data set [8], the Emax at 0.8 g/ha amounted to 83%, the Emax at 4 g/ha was 100% and the Emax at 20 g/ha was determined as 100%.
Regarding `CCS(=O)(=O)c1c(-c2nc3cc(C(F)(F)F)ncc3n2C)ncc2cc(C3(C#N)CC3)ccc12` [Example I-2], in data set [2], the pest or weed control at 0.8 ppm came out at 90%. Further, in [2], the pest or weed control at 4 ppm is 100%. In addition, the figures for the pest or weed control at 100 g/ha in [3], in data set [9] and in data set [7] were 90%, 100% and 100%, respectively.
In the case of `CCS(=O)(=O)c1c(-c2nc3cc(C(F)(F)C(F)(F)F)ccc3o2)ncc2cc(C3(C#N)CC3)ccc12` [Example I-3], the pest or weed control at 100 g/ha in data set [9] and in data set [7] was 100% throughout.
As to `CCS(=O)(=O)c1c(-c2nc3cc(C(F)(F)C(F)(F)F)cnc3n2C)ncc2cc(C3(C#N)CC3)ccc12` [Example I-4], in data set [2], the pest or weed control at 0.8 ppm was found to be 100%. In addition, in [2], the pest or weed control at 4 ppm was 100%. In addition, the pest or weed control at 100 g/ha in data set [3], in data set [9] and in data set [7] was 100% in each case.
For `CCS(=O)(=O)c1c(-c2nc3cc(OC(F)(F)C(F)(F)F)cnc3n2C)ncc2cc(C3(C#N)CC3)ccc12` [Example I-5], the pest or weed control at 4 ppm in data set [2] came out at 100%. Also, the pest or weed control at 100 g/ha is 90% in data set [3] and 100% in data set [7].
With `CCS(=O)(=O)c1c(-c2nc3cc(C(F)(F)F)ccc3n2C)ncc2cc(C3(C#N)CC3)ccc12` [Example I-6], the pest or weed control at 4 ppm in data set [2] was 100%. For the same compound, the pest or weed control at 100 g/ha in [3] came out at 90%; in data set [9] it was 100%; in data set [7], 100%.
`CCS(=O)(=O)c1c(-c2nc3cc(S(=O)(=O)C(F)(F)F)ccc3o2)ncc2cc(C3(C#N)CC3)ccc12` [Example I-7]: the pest or weed control at 100 g/ha in [9] and in [7] was 100% each time.
Consider `CCS(=O)(=O)c1c(-c2nc3cc(OC(F)(F)F)ccc3o2)ncc2cc(C3(C#N)CC3)ccc12` [Example I-8], for which the pest or weed control at 100 g/ha in [9] and in data set [7] was 100% throughout.
Consider `CCS(=O)(=O)c1c(-c2nc3cc(C(F)(F)C(F)(F)F)nnc3n2C)ncc2cc(C3(C#N)CC3)ccc12` [Example I-10], for which the pest or weed control at 0.8 ppm in data set [2] came to 90%. Besides, the pest or weed control at 100 g/ha in data set [3], in [9] and in data set [7] was 100% throughout.
Consider `CCS(=O)(=O)c1c(-c2nc3cc(OC(F)(F)F)cnc3n2C)ncc2cc(C3(C#N)CC3)ccc12` [Example I-11], for which, in data set [2], the pest or weed control at 0.8 ppm worked out at 100%. In data set [2], the pest or weed control at 4 ppm came out at 100%. Further, the pest or weed control at 100 g/ha in [3], in data set [9] and in data set [7] was 100% throughout.
Consider `CCS(=O)(=O)c1c(-c2nc3cc(OC(F)(F)F)ccc3n2C)ncc2cc(C3(C#N)CC3)ccc12` [Example I-12], for which the pest or weed control at 0.8 ppm in [2] turned out to be 90%. In addition, in [2], the pest or weed control at 4 ppm was 100%. Also, the pest or weed control at 100 g/ha in data set [3], in [9] and in [7] was 100% in each case.
On to `CCS(=O)(=O)c1c(-c2nc3cc(C(F)(F)C(F)(F)F)ncc3n2C)ncc2cc(C3(C#N)CC3)ccc12` [Example I-13], for which, in data set [2], the pest or weed control at 0.8 ppm was determined as 100%. In addition, the pest or weed control at 4 ppm in [2] worked out at 100%. The pest or weed control at 100 g/ha in data set [3], in [9] and in data set [7] was 100% in each case.
For `CCS(=O)(=O)c1c(-c2nc3cc(C(F)(F)C(F)F)cnc3n2C)ncc2cc(C3(C#N)CC3)ccc12` [Example I-14], in data set [2], the pest or weed control at 0.8 ppm was found to be 100%. The pest or weed control at 4 ppm in data set [2] amounted to 100%. Besides, the pest or weed control at 100 g/ha in data set [3], in data set [9] and in data set [7] was 100% in each case.
Take `CCS(=O)(=O)c1c(-c2nc3cc(C(F)(F)F)cnc3n2C)ncc2ccccc12` [I′-47, reference compound]: in data set [6], the Emax at 4 g/ha is 0% and the Emax at 20 g/ha is 67%. Moreover, in data set [8], the Emax at 0.8 g/ha was determined as 0%, the Emax at 4 g/ha was 33% and the Emax at 20 g/ha was 67%.
Consider `CCS(=O)(=O)c1c(-c2nc3cc(C(F)(F)F)cnc3n2C)ncc2cc(C(F)(F)F)ccc12` [I′-51, reference compound], for which, in data set [4], the Emax at 4 g/ha turned out to be 0%, the Emax at 20 g/ha turned out to be 0% and the Emax at 100 g/ha came to 90%.
